Experimental data published in US8003766B2, “Monoclonal antibody specific to ochratoxin A” (priority 2009, dated 2011).

Columns and labels:
[1] = tested on: 9C9H9 mAb (anti-OTA mAb); experiment: direct competitive ELISA (cdELISA); type: binding, mouse; settings: for concentrations causing 50% inhibition (IC50) binding of mAb to OTA-OVA by free toxin: FIG. 2A
Description: (§1) Both the cdELISA (direct competitive ELISA) and ciELISA (indirect competitive ELISA) were used to determine the specificity of 9C9H9 mAb.
Another ELISA method (direct competitive ELISA) was used to characterize mAb. The rabbit anti-mouse-Fc antibody was diluted in PBS (2 μg/mL), and 0.1 mL of the diluted form was coated onto each well. After incubation at 37° C. for 1 h and washing with Tween-PBS. The anti-OTA mAb supernatant was diluted in PBS (5 μg/mL) and 0.1 mL of the diluted form was used to coat each well. After the plate had been incubated at 4° C. overnight, it was washed with Tween-PBS followed by blocking with gelatin-PBS at 37° C. for 30 min. The plate was washed again with Tween-PBS four times, and then OTA standard (0.05 mL/well in PBS) concentrations from 0.01 to 100 ng/mL or samples together with the OTA-HRP conjugate (30 ng/mL, in PBS, 0.05 mL/well) were added and incubated at 37° C. for 50 min. The plate was washed four times with PBS-Tween, and 0.1 mL of TMB substrate solution was added. After incubation at room temperature in the dark for 10 min, the reaction was terminated by adding 0.1 mL of 1 N HCl. The absorbance at 450 nm was determined in the Vmax automatic ELISA reader.

[2] = tested on: 9C9H9 mAb (anti-OTA mAb); experiment: indirect competitive ELISA (ciELISA); type: binding, mouse; settings: for IC50 of binding of mAb to OTA-OVA by free toxin: OTA-OVA coated as solid-phase antigen, FIG. 2B
Description: as §1
Indirect Competitive ELISA was than used to characterize each mAb. Briefly, each well of a microtiter plate was coated with 0.1 mL of the OTA-OVA and kept at 4° C. overnight. After the plate had been washed four times with Tween-PBS (0.35 mL/well; 0.05% Tween 20 in PBS) using an automated ELISA washer, 0.17 mL of gelatin-PBS (0.17 mL/well; 0.1% gelatin in PBS) was added and allowed to incubate at 37° C. for 30 min. The plate was washed again and 0.05 mL of OTA standard with concentrations from 0.01 to 100 ng/mL or extracted samples (0.05 mL/well in PBS) were added to each well, and then the anti-OTA mAb (25 ng/mL in PBS, 0.05 mL/well) was added to all wells and incubated at 37° C. for 50 min. After incubation, the plate was washed four times with Tween-PBS, and 0.1 mL of goat antimouse IgG-HRP conjugate (1:20000 dilution) was added and incubated at 37° C. for 45 min. The plate was washed four times with Tween-PBS, and 0.1 mL of TMB substrate solution was added. After 10 min of incubation at room temperature, 0.1 mL of 1 N hydrochloric acid was added to stop the reaction. Absorbance at 450 nm was determined in a Vmax automatic ELISA reader.

[3] = at a concentration as high as 100 μg/mL

In the case of N[C@@H](Cc1ccccc1)C(=O)O [phenylalanine], the “inhibition of the binding of mAb to the marker antigen (OTA-HRP)” value [1, 3] is reported as “did not inhibit” and the “inhibition of the binding of mAb to the marker antigen (OTA-OVA)” value [2, 3] is reported as “did not inhibit”.
With C[C@@H]1Cc2c(Cl)cc(C(=O)N[C@@H](Cc3ccccc3)C(=O)O)c(O)c2C(=O)O1 [OTA, ochratoxin A] the “concentrations causing 50% inhibition (IC50) binding of mAb to OTA-OVA by free toxin” value [1] was 0.32 ng/mL and the “IC50 of binding of mAb to OTA-OVA by free toxin” value (shortened to “IC50 of binding … by free toxin”) [2] was 0.28 ng/mL.
In the case of CCOC(=O)[C@H](Cc1ccccc1)NC(=O)c1cc(Cl)c2c(c1O)C(=O)O[C@H](C)C2 [OTC, ochratoxin C], the “concentrations causing 50% inhibition (IC50) binding of mAb to OTA-OVA by free toxin” value [1] is reported as 0.28 ng/mL and the “IC50 of binding … by free toxin” value [2] is reported as 0.25 ng/mL.
In the case of C[C@@H]1Cc2ccc(C(=O)N[C@@H](Cc3ccccc3)C(=O)O)c(O)c2C(=O)O1 [OTB, ochratoxin B], the “concentrations causing 50% inhibition (IC50) binding of mAb to OTA-OVA by free toxin” value [1] is reported as 0.17 ng/mL and the “IC50 of binding … by free toxin” value [2] is reported as 0.35 ng/mL.
